{
  "source": "ChEMBL document CHEMBL5518183",
  "about": "“Broad-spectrum antiviral strategy: Host-targeting antivirals against emerging and re-emerging viruses” (Eur J Med Chem, 2024)",
  "key": {"SARS-CoV-2 [1]": {"test_system": "SARS-CoV-2", "experiment": "Antiviral activity against SARS-CoV-2 USA-WA1/2020 infected in human A549-ACE2 cells assessed as reduction in viral replication", "format": "functional, organism-based", "conditions": "Severe acute respiratory syndrome coronavirus 2, USA-WA1/2020, A549-ACE2"}, "SARS-CoV-2 [2]": {"test_system": "SARS-CoV-2", "experiment": "Antiviral activity against SARS-CoV-2 infected in […] Vero cells assessed as reduction in viral replication incubated for 24 hrs by Immunofluorescence assay", "format": "functional, organism-based", "conditions": "Severe acute respiratory syndrome coronavirus 2, Vero"}, "[3]": {"test_system": "Middle East respiratory syndrome-related coronavirus", "experiment": "Antiviral activity against MERS-CoV infected in human Calu-3 cells assessed as inhibition of viral growth", "format": "functional, organism-based"}, "SARS-CoV-2 [4]": {"test_system": "SARS-CoV-2", "experiment": "Antiviral activity against SARS-CoV-2 infected in African green monkey Vero E6 cells assessed as inhibition of virus growth", "format": "functional, organism-based", "conditions": "Severe acute respiratory syndrome coronavirus 2, Vero C1008"}, "Monkeypox virus": {"test_system": "Monkeypox virus", "experiment": "Antiviral activity against Monkeypox virus V79-1-005 infected in Vero cells assessed as reduction in viral replication measured after 4 days by colorimetric assay", "format": "functional, organism-based", "conditions": "V79-1-005, Vero, 96 h"}, "Hepatitis B virus": {"test_system": "Hepatitis B virus", "experiment": "Antiviral activity against HBV genotype A infected in human HepG2 cells assessed as inhibition of viral replication", "format": "functional, organism-based"}, "[5]": {"test_system": "Respiratory syncytial virus", "experiment": "Antiviral activity against RSV A2 infected in human HepG2 cells assessed as inhibition of virus induced cytopathic effect measured after 72 hrs by MTT assay", "format": "functional, organism-based", "conditions": "HepG2, 72 h"}, "[6]": {"test_system": "Human immunodeficiency virus 1", "experiment": "Antiviral activity against HIV-1 3B infected in human MT4 cells assessed as reduction in virus induced cytopathic effect incubated for 5 days by Cell Titer Glo luminescent assay", "format": "functional, organism-based", "conditions": "Human immunodeficiency virus 1, 3B, MT4, 120 h"}, "Hepatitis C virus": {"test_system": "Hepatitis C virus", "experiment": "Antiviral activity against Hepatitis C virus infected in Huh7.5 cells assessed as reduction in viral growth", "format": "functional, organism-based, Hepacivirus hominis"}, "[7]": {"test_system": "Respiratory syncytial virus", "experiment": "Antiviral activity against RSV infected in human HepG2 cells assessed as inhibition of virus induced cytopathic effect measured for 60 mins by MTT assay", "format": "functional, organism-based", "conditions": "HepG2, 1 h"}, "SARS-CoV-2 [8]": {"test_system": "SARS-CoV-2", "experiment": "Antiviral activity against SARS-CoV-2 […] B.1.351 Beta infected in human Calu-3 cells assessed as reduction of viral growth measured after 48 hrs by luciferase assay", "format": "functional, organism-based", "conditions": "Severe acute respiratory syndrome coronavirus 2"}, "SARS-CoV-2 [9]": {"test_system": "SARS-CoV-2", "experiment": "Antiviral activity against SARS-CoV-2 B.1.1.7 infected in human Calu-3 cells assessed as inhibition of viral infection measured after 48 hrs by Hoechst 33342 staining based analysis", "format": "functional, organism-based", "conditions": "Severe acute respiratory syndrome coronavirus 2, B.1.1.7, Calu-3, 48 h"}, "Enterovirus A71": {"test_system": "Enterovirus A71", "experiment": "Antiviral activity against human EV71 infected in HEK293 cells assessed as reduction in viral replication at MOI of 1 incubated for 48 hrs by luciferase assay", "format": "functional, organism-based", "conditions": "Enterovirus A, HEK293, 48 h"}, "[10]": {"test_system": "Human immunodeficiency virus 1", "experiment": "Antiviral activity against HIV1 infected in H9 cells assessed as reduction in viral replication", "format": "functional, organism-based", "conditions": "Human immunodeficiency virus 1, H9"}, "dengue virus type 2": {"test_system": "dengue virus type 2", "experiment": "Antiviral activity against DENV-2 infected in human Huh-7 cells at MOI of 0.05 assessed as log reduction of intracellular viral titre measured after 60 hrs post infection by RT-PCR analysis", "format": "functional, organism-based", "conditions": "Huh-7, 60 h"}, "Influenza A virus": {"test_system": "Influenza A virus", "experiment": "Antiviral activity against influenza A virus H1N1 infected in MDCK cells assessed as reduction in virus induced cytopathic effect by CPE assay", "format": "functional, organism-based"}, "Influenza B virus": {"test_system": "Influenza B virus", "experiment": "Antiviral activity against Influenza B virus assessed as inhibition of virus-induced cytopathic effect", "format": "functional, organism-based"}, "West Nile virus [11]": {"test_system": "West Nile virus", "experiment": "Antiviral activity against West Nile virus infected in African green monkey Vero cells assessed as inhibition of virus induced cytopathic effect incubated for 48 hrs by MTS assay", "format": "functional, organism-based"}, "MT4": {"test_system": "MT4", "experiment": "Cytotoxicity against human MT4 cells assessed as reduction in cell viability incubated for 72 hrs by celltiter glo assay", "format": "functional"}, "Chikungunya virus": {"test_system": "Chikungunya virus", "experiment": "Antiviral activity against CHIKV infected in Vero 76 cells assessed as reduction in cytopathic effect", "format": "functional, organism-based"}, "[12]": {"test_system": "Vesicular stomatitis virus", "experiment": "Antiviral activity against Vesicular stomatitis virus infected in human A549 cells assessed as reduction in virus replication", "format": "functional"}, "West Nile virus [13]": {"test_system": "West Nile virus", "experiment": "Antiviral activity against West Nile virus infected in African green monkey Vero 76 cells assessed as reduction in cytopathic effect", "format": "functional"}, "[14]": {"test_system": "Western equine encephalitis virus", "experiment": "Antiviral activity against Western equine encephalomyelitis virus infected in African green monkey Vero cells assessed as reduction in cytopathic effect", "format": "functional"}, "[15]": {"experiment": "Cytotoxicity against African green monkey Vero cells assessed as reduction in cell growth incubated for 72 hrs by MTT assay", "format": "toxicity, cell-based", "conditions": "chlorocebus sabaeus"}, "Yellow fever virus": {"test_system": "Yellow fever virus", "experiment": "Antiviral activity against Yellow fever virus African green monkey Vero cells assessed as reduction in cytopathic effect", "format": "functional"}},
  "note": "Where a name gives a salt, the structure may show the parent alone.",
  "data": [
    {"smiles": "COc1ccc([C@H]2c3[nH]c4ccc(Cl)cc4c3CCN2C(=O)Oc2ccc(Cl)cc2)cc1", "note": "[EMVODODSTAT]", "values": [
      {"measurement": "EC50", "setting": "SARS-CoV-2 [1]", "result": 2, "unit": "nM"}
    ]},
    {"smiles": "N=C(N)Nc1ccc(C(=O)Oc2ccc3cc(C(=N)N)ccc3c2)cc1", "note": "[NAFAMOSTAT MESYLATE]", "values": [
      {"measurement": "EC50", "setting": "SARS-CoV-2 [2]", "result": 5, "unit": "nM"},
      {"measurement": "EC50", "setting": "[3]", "result": 5.9, "unit": "nM"},
      {"measurement": "EC50", "setting": "SARS-CoV-2 [4]", "result": 1.4, "unit": "nM"}
    ]},
    {"smiles": "CC[C@H](CC#N)OC(=O)N[C@@H](C)c1cccc(NC(=O)Nc2ccc(-c3cnco3)c(OC)c2)c1", "note": "[AVN-944]", "values": [
      {"measurement": "EC50", "setting": "Monkeypox virus", "result": 34.5, "unit": "nM"}
    ]},
    {"smiles": "CC[C@@H]1NC(=O)[C@H]([C@@H]2O[C@@H](Sc3cccc(OCc4ccccc4)c3)C[C@H]2C)N(C)C(=O)[C@H](C(C)C)N(C)C(=O)[C@H](CC(C)C)N(C)C(=O)[C@H](CC(C)C)N(C)C(=O)[C@@H](C)NC(=O)[C@H](C)NC(=O)[C@H](CC(C)C)N(C)C(=O)[C@H](C(C)C)NC(=O)[C@H](CC(C)C)N(C)C(=O)CN(C)C1=O", "values": [
      {"measurement": "IC50", "setting": "Hepatitis B virus", "result": 110, "unit": "nM"}
    ]},
    {"smiles": "COCCNC(=O)[C@@H]1C[C@@H](Sc2nc3ccccc3[nH]2)CN1Cc1ccc2c(c1)Cc1ccccc1-2", "values": [
      {"measurement": "EC50", "setting": "[5]", "result": 2, "unit": "nM"},
      {"measurement": "EC50", "setting": "[6]", "result": 2, "unit": "nM"},
      {"measurement": "EC50", "setting": "Hepatitis C virus", "result": 2, "unit": "nM"},
      {"measurement": "EC50", "setting": "[7]", "result": 2, "unit": "nM"}
    ]},
    {"smiles": "CS(=O)(=O)N[C@@H](CCC(N)=O)C(=O)N[C@@H](Cc1ccccc1)C(=O)N[C@@H](CCCNC(=N)N)C(=O)c1nc2ccccc2s1", "values": [
      {"measurement": "IC50", "setting": "SARS-CoV-2 [8]", "result": 1.9, "unit": "nM"},
      {"measurement": "IC50", "setting": "SARS-CoV-2 [9]", "result": 1.9, "unit": "nM"}
    ]},
    {"smiles": "O=C(CCNC(=O)c1ccc(OC(F)(F)F)cc1)C[C@H]1CCCc2ccccc21", "values": [
      {"measurement": "IC50", "setting": "Enterovirus A71", "result": 66, "unit": "nM"}
    ]},
    {"smiles": "COc1ccccc1NC(=O)c1ccccc1Sc1ccc([N+](=O)[O-])cc1", "values": [
      {"measurement": "EC50", "setting": "[10]", "result": 6000, "unit": "nM"}
    ]},
    {"smiles": "CN(/N=C/c1ccccc1C(=O)O)c1nc(-c2ccccc2Cl)cs1", "values": [
      {"measurement": "EC50", "setting": "dengue virus type 2", "result": 17, "unit": "nM"}
    ]},
    {"smiles": "O=C(Nc1cccnc1)c1cccs1", "values": [
      {"measurement": "EC50", "setting": "Influenza A virus", "result": 2300, "unit": "nM"},
      {"measurement": "EC50", "setting": "Influenza B virus", "result": 2300, "unit": "nM"}
    ]},
    {"smiles": "Cc1oncc1C(=O)Nc1ccc(C(F)(F)F)cc1", "note": "[LEFLUNOMIDE]", "values": [
      {"measurement": "EC50", "setting": "West Nile virus [11]", "result": 35000, "unit": "nM"},
      {"measurement": "CC50", "setting": "MT4", "result": 178000, "unit": "nM"}
    ]},
    {"smiles": "COc1cc2c(cc1C(=O)Nc1ccc(C(C)(C)C#N)cc1)CCCCC2", "values": [
      {"measurement": "EC50", "setting": "Chikungunya virus", "result": 270, "unit": "nM"}
    ]},
    {"smiles": "COC(=O)c1c(-c2c(Cl)cccc2Cl)noc1-c1cnn(-c2cccc(Cl)c2)c1C(F)(F)F", "values": [
      {"measurement": "EC90", "setting": "[12]", "result": 38.7, "unit": "nM"},
      {"measurement": "EC90", "setting": "West Nile virus [13]", "result": 0.31, "unit": "nM"},
      {"measurement": "EC90", "setting": "[14]", "result": 33.8, "unit": "nM"},
      {"measurement": "CC50 at 72 h", "setting": "[15]", "result": 5000, "unit": "nM"},
      {"measurement": "EC90", "setting": "Yellow fever virus", "result": 12.8, "unit": "nM"}
    ]}
  ]
}
